Assay results: article PMC9133015 (Nature Communications, 2022)
Where “and” joins values, the source holds several entries; their conditions need not be identical. Equal entries are not always repeated.

Tests used:
Test in all cases: Kinase inhibitor specificity profiling (Reaction Biology Corporation)
Type in all cases: biochemical
Set-up in all cases: % Enzyme Activity (relative to DMSO controls): concentration or dose not given beside the values
[1] = target: T1, panel of 370 protein kinases (Homo sapiens, UniProt P04049); conditions: 2 h, kinase RAF1; read-out: % Enzyme Activity (relative to DMSO controls)
T1 construct: purchased Reaction Biology Corporation (assay service)
T1 sequence (P04049 whole entry): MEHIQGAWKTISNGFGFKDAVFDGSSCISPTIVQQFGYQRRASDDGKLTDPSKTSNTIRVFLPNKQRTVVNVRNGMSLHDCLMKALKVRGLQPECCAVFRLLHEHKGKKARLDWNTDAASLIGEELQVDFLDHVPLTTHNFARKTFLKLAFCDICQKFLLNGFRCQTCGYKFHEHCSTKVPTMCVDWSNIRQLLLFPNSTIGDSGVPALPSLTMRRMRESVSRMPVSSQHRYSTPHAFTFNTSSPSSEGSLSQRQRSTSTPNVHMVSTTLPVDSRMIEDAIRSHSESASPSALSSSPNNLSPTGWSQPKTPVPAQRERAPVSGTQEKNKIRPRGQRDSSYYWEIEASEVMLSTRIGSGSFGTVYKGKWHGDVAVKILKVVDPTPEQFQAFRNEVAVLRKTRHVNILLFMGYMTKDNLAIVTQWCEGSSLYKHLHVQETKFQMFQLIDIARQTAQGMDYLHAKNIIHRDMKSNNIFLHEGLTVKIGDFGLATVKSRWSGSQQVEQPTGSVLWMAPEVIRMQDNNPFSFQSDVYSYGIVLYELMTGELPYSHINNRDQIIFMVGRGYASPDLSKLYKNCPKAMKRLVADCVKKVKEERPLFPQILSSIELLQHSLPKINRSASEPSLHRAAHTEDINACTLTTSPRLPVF

[2] = target: T2, panel of 370 protein kinases (Homo sapiens, UniProt P11309); conditions: 2 h, kinase PIM1; read-out: % Enzyme Activity (relative to DMSO controls)
T2 construct: purchased Reaction Biology Corporation (assay service)
T2 sequence (P11309 whole entry): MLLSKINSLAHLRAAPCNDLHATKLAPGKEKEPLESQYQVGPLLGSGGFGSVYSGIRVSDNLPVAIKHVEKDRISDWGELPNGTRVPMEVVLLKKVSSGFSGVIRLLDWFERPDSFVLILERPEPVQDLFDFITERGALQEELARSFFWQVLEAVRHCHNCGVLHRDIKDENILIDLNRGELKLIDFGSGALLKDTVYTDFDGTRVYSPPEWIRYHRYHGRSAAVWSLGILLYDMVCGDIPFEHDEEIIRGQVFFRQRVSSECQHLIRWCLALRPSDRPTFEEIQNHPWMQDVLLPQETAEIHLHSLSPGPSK

[3] = target: T3, panel of 370 protein kinases (Homo sapiens, UniProt P24941)
T3 construct: purchased Reaction Biology Corporation (assay service)

[4] = target: T4, panel of 370 protein kinases (Homo sapiens, UniProt P25098); conditions: 2 h, kinase GRK2; read-out: % Enzyme Activity (relative to DMSO controls)
T4 construct: purchased Reaction Biology Corporation (assay service)

[5] = target: T5, panel of 370 protein kinases (Homo sapiens, UniProt P30530); conditions: 2 h, kinase AXL; read-out: % Enzyme Activity (relative to DMSO controls)
T5 construct: purchased Reaction Biology Corporation (assay service)

[6] = target: T6, panel of 370 protein kinases (Homo sapiens, UniProt P42679); conditions: 2 h, kinase CTK/MATK; read-out: % Enzyme Activity (relative to DMSO controls)
T6 construct: purchased Reaction Biology Corporation (assay service)

[7] = target: T7, panel of 370 protein kinases (Homo sapiens, UniProt P42684); conditions: 2 h, kinase ABL2/ARG; read-out: % Enzyme Activity (relative to DMSO controls)
T7 construct: purchased Reaction Biology Corporation (assay service)

[8] = target: T8, panel of 370 protein kinases (Homo sapiens, UniProt P53355); conditions: 2 h, kinase DAPK1; read-out: % Enzyme Activity (relative to DMSO controls)
T8 construct: purchased Reaction Biology Corporation (assay service)

[9] = target: T9, panel of 370 protein kinases (Homo sapiens, UniProt P53779); conditions: kinase JNK3
T9 construct: purchased Reaction Biology Corporation (assay service)
T9 sequence (P53779 whole entry): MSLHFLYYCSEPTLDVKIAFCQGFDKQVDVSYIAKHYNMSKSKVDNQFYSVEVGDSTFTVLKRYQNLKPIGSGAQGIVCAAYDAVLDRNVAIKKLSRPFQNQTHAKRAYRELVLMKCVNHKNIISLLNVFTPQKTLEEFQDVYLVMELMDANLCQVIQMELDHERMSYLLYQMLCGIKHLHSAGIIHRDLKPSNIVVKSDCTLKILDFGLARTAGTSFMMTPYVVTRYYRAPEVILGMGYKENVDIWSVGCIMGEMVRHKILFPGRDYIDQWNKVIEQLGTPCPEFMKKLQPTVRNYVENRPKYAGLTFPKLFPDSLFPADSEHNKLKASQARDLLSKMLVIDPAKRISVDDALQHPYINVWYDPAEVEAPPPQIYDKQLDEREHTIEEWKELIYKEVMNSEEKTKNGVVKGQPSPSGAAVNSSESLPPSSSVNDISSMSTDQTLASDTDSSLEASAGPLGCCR

[10] = target: T10, panel of 370 protein kinases (Homo sapiens, UniProt P54764); conditions: 2 h, kinase EPHA4; read-out: % Enzyme Activity (relative to DMSO controls)
T10 construct: purchased Reaction Biology Corporation (assay service)
T10 sequence (P54764 20-986): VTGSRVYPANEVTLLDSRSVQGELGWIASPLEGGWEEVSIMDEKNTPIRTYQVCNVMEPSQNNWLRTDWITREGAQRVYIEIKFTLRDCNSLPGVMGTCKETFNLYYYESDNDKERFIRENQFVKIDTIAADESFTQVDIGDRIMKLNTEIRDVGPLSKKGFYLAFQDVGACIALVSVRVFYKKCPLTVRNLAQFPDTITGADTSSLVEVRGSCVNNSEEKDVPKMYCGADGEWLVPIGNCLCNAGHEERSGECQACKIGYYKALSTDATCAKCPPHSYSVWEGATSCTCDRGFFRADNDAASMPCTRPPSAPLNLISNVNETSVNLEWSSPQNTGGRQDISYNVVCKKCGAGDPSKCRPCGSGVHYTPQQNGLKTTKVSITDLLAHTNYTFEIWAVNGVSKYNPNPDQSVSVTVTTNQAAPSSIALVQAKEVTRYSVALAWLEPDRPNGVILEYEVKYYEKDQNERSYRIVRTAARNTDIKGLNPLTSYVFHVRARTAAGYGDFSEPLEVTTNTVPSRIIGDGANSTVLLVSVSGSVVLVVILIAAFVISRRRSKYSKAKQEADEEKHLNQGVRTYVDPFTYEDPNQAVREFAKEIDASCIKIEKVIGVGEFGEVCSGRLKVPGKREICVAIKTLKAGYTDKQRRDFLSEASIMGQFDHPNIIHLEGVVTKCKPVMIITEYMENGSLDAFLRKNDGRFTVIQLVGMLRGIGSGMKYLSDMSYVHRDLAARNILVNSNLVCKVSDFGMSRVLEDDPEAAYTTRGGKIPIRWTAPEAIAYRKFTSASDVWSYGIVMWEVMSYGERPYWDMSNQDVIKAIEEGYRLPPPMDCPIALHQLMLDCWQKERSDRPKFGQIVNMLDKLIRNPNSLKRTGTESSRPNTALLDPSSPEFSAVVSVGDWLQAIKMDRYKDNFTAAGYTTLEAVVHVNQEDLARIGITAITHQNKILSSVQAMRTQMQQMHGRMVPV

[11] = target: T11, panel of 370 protein kinases (Homo sapiens, UniProt Q05655); conditions: 2 h, kinase PKCd; read-out: % Enzyme Activity (relative to DMSO controls)
T11 construct: purchased Reaction Biology Corporation (assay service)
T11 sequence (Q05655 whole entry): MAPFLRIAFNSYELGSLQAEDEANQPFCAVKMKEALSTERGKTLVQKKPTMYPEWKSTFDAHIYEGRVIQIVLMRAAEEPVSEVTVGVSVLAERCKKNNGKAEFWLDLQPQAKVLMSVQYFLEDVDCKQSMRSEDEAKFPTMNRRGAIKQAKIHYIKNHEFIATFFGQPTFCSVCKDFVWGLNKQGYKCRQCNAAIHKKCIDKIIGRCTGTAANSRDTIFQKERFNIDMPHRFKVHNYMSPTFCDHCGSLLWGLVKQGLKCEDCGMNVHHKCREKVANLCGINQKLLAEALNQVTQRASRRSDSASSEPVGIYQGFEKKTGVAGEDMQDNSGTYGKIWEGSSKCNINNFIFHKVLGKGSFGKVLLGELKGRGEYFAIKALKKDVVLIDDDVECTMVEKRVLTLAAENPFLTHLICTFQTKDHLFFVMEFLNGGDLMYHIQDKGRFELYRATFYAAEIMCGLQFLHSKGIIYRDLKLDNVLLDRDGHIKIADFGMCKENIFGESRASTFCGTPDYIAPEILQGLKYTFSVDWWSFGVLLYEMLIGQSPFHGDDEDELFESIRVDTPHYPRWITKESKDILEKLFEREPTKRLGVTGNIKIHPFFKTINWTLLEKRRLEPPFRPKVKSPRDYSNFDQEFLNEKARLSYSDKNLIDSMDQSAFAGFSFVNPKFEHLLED

[12] = target: T12, panel of 370 protein kinases (Homo sapiens, UniProt Q09013); conditions: 2 h, kinase DMPK; read-out: % Enzyme Activity (relative to DMSO controls)
T12 construct: purchased Reaction Biology Corporation (assay service)

[13] = target: T13, panel of 370 protein kinases (Homo sapiens, UniProt Q13237); conditions: 2 h, kinase PKG2/PRKG2; read-out: % Enzyme Activity (relative to DMSO controls)
T13 construct: purchased Reaction Biology Corporation (assay service)

[14] = target: T14, panel of 370 protein kinases (Homo sapiens, UniProt Q14164); conditions: 2 h, kinase IKKe/IKBKE; read-out: % Enzyme Activity (relative to DMSO controls)
T14 construct: purchased Reaction Biology Corporation (assay service)
T14 sequence (Q14164 whole entry): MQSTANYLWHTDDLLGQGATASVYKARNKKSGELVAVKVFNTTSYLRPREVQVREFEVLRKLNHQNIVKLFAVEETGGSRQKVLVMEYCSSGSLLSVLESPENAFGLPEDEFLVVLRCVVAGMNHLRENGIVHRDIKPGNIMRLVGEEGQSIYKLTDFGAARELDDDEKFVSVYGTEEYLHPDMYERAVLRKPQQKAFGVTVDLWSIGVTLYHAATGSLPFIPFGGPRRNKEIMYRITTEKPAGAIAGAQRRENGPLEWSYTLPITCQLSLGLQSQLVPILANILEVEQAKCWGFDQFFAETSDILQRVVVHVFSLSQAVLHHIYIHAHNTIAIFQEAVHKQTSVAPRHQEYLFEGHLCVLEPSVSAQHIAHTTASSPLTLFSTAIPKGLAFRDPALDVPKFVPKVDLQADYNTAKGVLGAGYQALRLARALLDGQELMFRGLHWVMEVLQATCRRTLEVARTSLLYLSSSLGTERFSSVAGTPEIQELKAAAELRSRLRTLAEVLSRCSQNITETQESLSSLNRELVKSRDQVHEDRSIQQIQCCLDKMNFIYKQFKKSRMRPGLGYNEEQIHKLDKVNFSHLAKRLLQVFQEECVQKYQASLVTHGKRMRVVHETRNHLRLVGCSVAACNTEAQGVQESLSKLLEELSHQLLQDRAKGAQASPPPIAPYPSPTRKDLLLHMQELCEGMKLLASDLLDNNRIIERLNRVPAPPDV

[15] = target: T15, panel of 370 protein kinases (Homo sapiens, UniProt Q15831); conditions: 2 h, kinase LKB1; read-out: % Enzyme Activity (relative to DMSO controls)
T15 construct: purchased Reaction Biology Corporation (assay service)
T15 sequence (Q15831 whole entry): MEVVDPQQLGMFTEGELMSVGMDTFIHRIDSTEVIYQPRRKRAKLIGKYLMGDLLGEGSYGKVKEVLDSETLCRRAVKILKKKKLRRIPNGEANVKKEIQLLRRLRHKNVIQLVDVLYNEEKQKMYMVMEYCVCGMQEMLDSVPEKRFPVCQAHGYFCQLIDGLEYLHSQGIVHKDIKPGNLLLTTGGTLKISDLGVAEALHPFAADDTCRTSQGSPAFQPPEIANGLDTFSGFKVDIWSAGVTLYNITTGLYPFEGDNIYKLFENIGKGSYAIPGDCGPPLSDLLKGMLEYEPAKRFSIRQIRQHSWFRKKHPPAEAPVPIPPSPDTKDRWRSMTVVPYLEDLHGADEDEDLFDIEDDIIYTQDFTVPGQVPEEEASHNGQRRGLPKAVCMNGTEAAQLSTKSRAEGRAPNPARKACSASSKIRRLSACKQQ

[16] = target: T16, panel of 370 protein kinases (Homo sapiens, UniProt Q52WX2); conditions: 2 h, kinase SBK1; read-out: % Enzyme Activity (relative to DMSO controls)
T16 construct: purchased Reaction Biology Corporation (assay service)

[17] = target: T17, panel of 370 protein kinases (Homo sapiens, UniProt Q6DT37); conditions: 2 h, kinase DMPK2; read-out: % Enzyme Activity (relative to DMSO controls)
T17 construct: purchased Reaction Biology Corporation (assay service)

[18] = target: T18, panel of 370 protein kinases (Homo sapiens, UniProt Q6P3R8); conditions: 2 h, kinase NEK5; read-out: % Enzyme Activity (relative to DMSO controls)
T18 construct: purchased Reaction Biology Corporation (assay service)

[19] = target: T19, panel of 370 protein kinases (Homo sapiens, UniProt Q9HCP0); conditions: kinase CK1g1
T19 construct: purchased Reaction Biology Corporation (assay service)
T19 sequence (Q9HCP0 whole entry): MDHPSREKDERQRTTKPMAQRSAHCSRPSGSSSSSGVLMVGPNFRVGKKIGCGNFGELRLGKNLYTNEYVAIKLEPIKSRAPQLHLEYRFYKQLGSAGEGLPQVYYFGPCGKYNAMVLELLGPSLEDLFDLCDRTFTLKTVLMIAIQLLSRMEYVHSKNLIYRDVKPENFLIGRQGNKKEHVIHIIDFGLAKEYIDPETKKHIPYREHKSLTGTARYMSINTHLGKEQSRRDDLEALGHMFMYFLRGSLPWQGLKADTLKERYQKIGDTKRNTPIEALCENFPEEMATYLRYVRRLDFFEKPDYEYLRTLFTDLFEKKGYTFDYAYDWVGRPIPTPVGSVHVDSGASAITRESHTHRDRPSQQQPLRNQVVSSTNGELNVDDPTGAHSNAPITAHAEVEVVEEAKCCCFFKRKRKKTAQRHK

[20] = target: T20, panel of 370 protein kinases (Homo sapiens, UniProt Q9UIK4); conditions: 2 h, kinase DAPK2; read-out: % Enzyme Activity (relative to DMSO controls)
T20 construct: purchased Reaction Biology Corporation (assay service)
T20 sequence (Q9UIK4 whole entry): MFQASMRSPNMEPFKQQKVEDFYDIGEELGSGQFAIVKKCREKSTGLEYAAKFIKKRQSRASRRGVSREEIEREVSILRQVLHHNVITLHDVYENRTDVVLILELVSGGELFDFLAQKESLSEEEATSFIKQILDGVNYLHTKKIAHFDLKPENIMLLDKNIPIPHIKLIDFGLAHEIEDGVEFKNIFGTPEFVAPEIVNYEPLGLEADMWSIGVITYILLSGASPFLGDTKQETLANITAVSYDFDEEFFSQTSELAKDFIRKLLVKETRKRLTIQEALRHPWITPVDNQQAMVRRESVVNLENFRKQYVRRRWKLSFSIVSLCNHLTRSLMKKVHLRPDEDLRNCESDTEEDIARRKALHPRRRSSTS

[21] = target: T21, panel of 370 protein kinases (Homo sapiens, UniProt Q9Y572); conditions: 2 h, kinase RIPK3; read-out: % Enzyme Activity (relative to DMSO controls)
T21 construct: purchased Reaction Biology Corporation (assay service)

For `CCN1CCN(C(=O)c2ccc(Nc3ncc(F)c(-c4ccc5nc(N(C)C)sc5c4)n3)nc2)CC1` [YK-2-69], the remaining activity at 1 µM [1] was 106%, the remaining activity at 1 µM [2] was 77% and the “% Enzyme Activity (relative to DMSO controls)” value ([3]; kinase CDK2/CYCLIN A) was 90.79% and 87.87%. For the same molecule, the “% Enzyme Activity (relative to DMSO controls)” value ([3]; kinase CDK2/CYCLIN E) was 95.30% and 94.87%, the “% Enzyme Activity (relative to DMSO controls)” value ([3]; kinase CDK2/Cyclin A1) was 80.25% and 75.26% and the “% Enzyme Activity (relative to DMSO controls)” value ([3]; kinase CDK2/cyclin E2) was 104.31% and 100.73%. For the same molecule, the “% Enzyme Activity (relative to DMSO controls)” value ([3]; kinase CDK2/cyclin O) was 78.97% and 75.52%, the remaining activity at 1 µM [4] was 112% and the remaining activity at 1 µM [5] was 94.3%. For the same molecule, the remaining activity at 1 µM [6] was 98%, the remaining activity at 1 µM [7] was 91.2% and the remaining activity at 1 µM [8] was 62.2%. The “% Enzyme Activity (relative to DMSO controls)” value [9] was 84.96% and 83.74%, the remaining activity at 1 µM [10] was 70.2% and the remaining activity at 1 µM [11] was 70.9%. The remaining activity at 1 µM [12] was 95.8%, the remaining activity at 1 µM [13] was 94.6% and the remaining activity at 1 µM [14] was 98.5%. The remaining activity at 1 µM [15] was 111%, the remaining activity at 1 µM [16] was 103% and the remaining activity at 1 µM [17] was 97.7%. The remaining activity at 1 µM [18] was 72.1%, the “% Enzyme Activity (relative to DMSO controls)” value [19] was 102.35% and 96.73% and the remaining activity at 1 µM [20] was 89.2%. The remaining activity at 1 µM [21] was 102%.
